The subject of assay [1] is MCF7 cells (breast cancer cells). Description: In vitro anti-cancer cell experiment (MTT), MCF7. As to conditions: Homo sapiens.
For assay [2], the system named is mouse ascites sarcoma S180. In words: Efficacy studies of anti-tumor in vivo, S180 sarcoma in Kunming mice. As to conditions: for Difference from the control group in S180 sarcoma growth: Kunming mice, S180, p<0.05; for Growth Inhibition of S180 sarcoma, inhibition rate: mouse, in vivo, ip.
[3] abbreviates: MCF7, 48 h, read-out: Growth Inhibition of cell line IC50, MCF7.
Setting [4] is: MCF7, read-out: IC50, anti-proliferative effect on MCF7 cells.

Values after ≈ are worked out from the molar mass of the structure shown. Like-named read-outs stand apart in the source and are kept apart here.

In general, IC50 refers to the concentration that gives 50% inhibition.

On to `OC12CC3CC(CC(C3)O1)C2` [Example 47, 2-oxaadamantan-1-ol], for which the IC50 in assay [1] (setting [3]) and in assay [1] (setting [4]) was 56.3 µg/mL (≈ 365 µM) each time. For `O=C(Cn1cnc(-c2ccccc2)c1-c1ccccc1)NC12CC3CC(CC(C3)C1)C2` [Example 11, N-((1s,3s)-adamantan-1-yl)-2-(4,5-diphenyl-1H-imidazol-1-yl)acetamide], in assay [2], the “Difference from the control group in S180 sarcoma growth” value (shortened to “Difference from the control group”) is reported as “significant difference”.

In the case of `O=C(CN1C(=O)c2ccc([N+](=O)[O-])cc2C1=O)NC12CC3CC(CN(C3)C1)C2` [Example 8, N-((1r,3r,5R,7S)-1-azaadamantan-3-yl)-2-(5-nitro-1,3-dioxoisoindolin-2-yl)acetamide], the “Difference from the control group” value in assay [2] is given as “significant difference”. Consider `Nc1ccc2c(c1)C(=O)N(CC(=O)NC13CC4CC(CN(C4)C1)C3)C2=O` [Example 9, N-((1r,3r,5R,7S)-1-azaadamantan-3-yl)-2-(5-amino-1,3-dioxoisoindolin-2-yl)acetamide], for which the “Difference from the control group” value in assay [2] is given as “significant difference”.

For the molecule `CCCCCNC12CN3CN(CN(C3)C1)C2` [Example 68, (1s,3s,5s)-N-pentyl-1,3,5-triazaadamantan-7-amine], the “Difference from the control group” value in assay [2] is recorded as “significant difference”. The IC50 in assay [1] (setting [3]) and in assay [1] (setting [4]) was 2.28 µg/mL (≈ 10.2 µM) each time. In the case of “(1R,3R,5S,7S,Z)-1-azaadamantan-4- one oxime [Example 55]”, the “Growth Inhibition of S180 sarcoma, inhibition rate” value in assay [2] is on record as 32%.

As for `O=C(CN1C(=O)C2C3CC(O)C(O3)C2C1=O)NC12CC3CC(CN(C3)C1)C2` (stereo not shown) [Example 7, N-((1r,3r)-1-azaadamantan-3-yl)-2-(5-hydroxy-1,3-dioxohexahydro-1H-4,7-epoxyisoindol-2(3H)-yl)acetamide], in assay [2], the “Difference from the control group” value is listed as “significant difference”. As for “(1R,3S,5R,7S,Z)-1-hydroxy-3-methyl-2- oxaadamantan-6-one oxime [Example 74]”, the “Growth Inhibition of S180 sarcoma, inhibition rate” value in assay [2] amounted to 20%. In the case of `O=C1C2CC3CC(C2)OC1C3` (stereo not shown) [Example 43, 2-oxaadamantan-4-one], the half-maximal inhibitory concentration (IC50) in assay [1] (setting [3]) and in assay [1] (setting [4]) was 44.2 µg/mL (≈ 291 µM) throughout. As to `COC(=O)C12C3CC4CC5C3CC(CC5C1(C(=O)OC)N4C)N2C` [Example 107, dimethanol decahydro-2,8,4,6-(cyclobutyl[1,2,3,4]dimethyl) naphthalene-2,4,4a,6-dicarboxylate], in assay [2], the “Difference from the control group” value is “significant difference”. On to `COc1cc(C23CN4CN(C2)CC(c2cc(OC)c(OC)c(OC)c2)(C4)C3=O)cc(OC)c1OC` [Example 62, (1r,3r,5r,7r)-5,7-bis(3,4,5-trimethoxyphenyl)-1,3-diazaadamantan-6-one], for which the IC50 in assay [1] (setting [3]) and in assay [1] (setting [4]) was 6.94 µg/mL (≈ 14.3 µM) in each case.

Source of the values: patent US20140045779A1, “COMPOUNDS CONTAINING AN ALICYCLIE STRUCTURE AND ANTI-TUMOR APPLICATION” (priority 2011, published 2014).
